From the NIST ThermoML archive (doi:10.1021/je060137q)

Assays:
[1] = xn = mol fraction of the nth substance listed; conditions: for surface tension liquid-gas: Pendant drop shape; for mass density: 101 kPa, Liquid
[2] = 101 kPa, Liquid

Cc1cc(C)cc(C)c1 [1,3,5-trimethylbenzene] + CCOC(=O)OCC
[1]
Conditions	mass density [kg/m3]	surface tension liquid-gas [mN/m]
298.15 K, x2 = 0	861.04	28.09
298.15 K, x2 = 0.05	865.43	–
298.15 K, x2 = 0.1	869.94	27.71
298.15 K, x2 = 0.15	874.61	–
298.15 K, x2 = 0.1999	879.3	27.37
298.15 K, x2 = 0.2501	884.12	–
298.15 K, x2 = 0.2999	889.01	27.01
298.15 K, x2 = 0.3498	893.96	–
298.15 K, x2 = 0.3999	899.08	26.76
298.15 K, x2 = 0.4499	904.28	–
298.15 K, x2 = 0.5006	909.64	26.56
298.15 K, x2 = 0.5497	914.93	–
298.15 K, x2 = 0.6001	920.47	–
298.15 K, x2 = 0.6498	926.07	–
298.15 K, x2 = 0.7007	931.9	–
298.15 K, x2 = 0.7495	937.62	–
298.15 K, x2 = 0.8004	943.71	–
298.15 K, x2 = 0.849	949.64	–
298.15 K, x2 = 0.9001	956.06	–
298.15 K, x2 = 0.9501	962.49	–
313.15 K, x2 = 0	848.73	26.82
313.15 K, x2 = 0.0502	852.95	–
313.15 K, x2 = 0.0997	–	26.36
313.15 K, x2 = 0.1001	857.31	–
313.15 K, x2 = 0.1497	861.7	–
313.15 K, x2 = 0.1995	–	25.95
313.15 K, x2 = 0.201	866.26	–
313.15 K, x2 = 0.248	870.64	–
313.15 K, x2 = 0.2987	875.33	–
313.15 K, x2 = 0.2997	–	25.57
313.15 K, x2 = 0.3417	879.45	–
313.15 K, x2 = 0.4001	–	25.22
313.15 K, x2 = 0.4009	885.2	–
313.15 K, x2 = 0.4487	889.94	–
313.15 K, x2 = 0.5001	–	24.93
313.15 K, x2 = 0.5005	895.18	–
313.15 K, x2 = 0.5501	900.3	–
313.15 K, x2 = 0.5995	905.52	–
313.15 K, x2 = 0.651	911.05	–
313.15 K, x2 = 0.6995	916.4	–
313.15 K, x2 = 0.7495	921.97	–
313.15 K, x2 = 0.8004	927.84	–
313.15 K, x2 = 0.8501	933.7	–
313.15 K, x2 = 0.9001	939.69	–
313.15 K, x2 = 0.9501	945.76	–

Cc1cc(C)cc(C)c1 [1,3,5-trimethylbenzene] + COC(=O)OC
[1]
Conditions	mass density [kg/m3]	surface tension liquid-gas [mN/m]
298.15 K, x2 = 0	861.04	28.09
298.15 K, x2 = 0.054	867.08	–
298.15 K, x2 = 0.1048	872.95	27.91
298.15 K, x2 = 0.1518	878.8	–
298.15 K, x2 = 0.1998	885.1	27.6
298.15 K, x2 = 0.2491	891.85	–
298.15 K, x2 = 0.3001	899.28	27.43
298.15 K, x2 = 0.3496	906.77	–
298.15 K, x2 = 0.3999	–	27.32
298.15 K, x2 = 0.4001	914.84	–
298.15 K, x2 = 0.4499	923.32	–
298.15 K, x2 = 0.4999	932.32	27.34
298.15 K, x2 = 0.5508	942.03	–
298.15 K, x2 = 0.5977	951.57	–
298.15 K, x2 = 0.6488	962.47	–
298.15 K, x2 = 0.7	974.17	–
298.15 K, x2 = 0.7514	986.83	–
298.15 K, x2 = 0.7999	999.6	–
298.15 K, x2 = 0.85	1013.67	–
298.15 K, x2 = 0.8999	1028.84	–
298.15 K, x2 = 0.9499	1045.18	–
313.15 K, x2 = 0	848.73	26.82
313.15 K, x2 = 0.0505	854.19	–
313.15 K, x2 = 0.1009	–	26.42
313.15 K, x2 = 0.1046	860.31	–
313.15 K, x2 = 0.15	865.69	–
313.15 K, x2 = 0.1994	–	26.04
313.15 K, x2 = 0.2007	872.13	–
313.15 K, x2 = 0.2489	878.45	–
313.15 K, x2 = 0.2985	885.42	–
313.15 K, x2 = 0.2996	–	25.8
313.15 K, x2 = 0.35	892.95	–
313.15 K, x2 = 0.3983	900.54	–
313.15 K, x2 = 0.4016	–	25.63
313.15 K, x2 = 0.4498	908.93	–
313.15 K, x2 = 0.5001	917.76	–
313.15 K, x2 = 0.5004	–	25.55
313.15 K, x2 = 0.5492	926.76	–
313.15 K, x2 = 0.5999	936.76	–
313.15 K, x2 = 0.6488	946.86	–
313.15 K, x2 = 0.6992	958.18	–
313.15 K, x2 = 0.7489	969.98	–
313.15 K, x2 = 0.7995	982.91	–
313.15 K, x2 = 0.8479	996.11	–
313.15 K, x2 = 0.8997	1011.33	–
313.15 K, x2 = 0.9501	1027.37	–

CCOC(=O)OCC [diethyl carbonate]
[2]
Conditions	mass density [kg/m3]
298.15 K	969.12
313.15 K	952.15

CCOC(=O)OCC [diethyl carbonate] + Cc1cc(C)cc(C)c1
[1], x1 = 1
Conditions	mass density [kg/m3]
298.15 K	969.12
313.15 K	952.15

CCOC(=O)OCC [diethyl carbonate] + Cc1ccc(C)c(C)c1
[1], x1 = 1
Conditions	mass density [kg/m3]
298.15 K	969.12
313.15 K	952.15

COC(=O)OC [dimethyl carbonate]
[2]
Conditions	mass density [kg/m3]
298.15 K	1062.97
313.15 K	1044.63

COC(=O)OC [dimethyl carbonate] + Cc1cc(C)cc(C)c1
[1], x1 = 1
Conditions	mass density [kg/m3]
298.15 K	1062.97
313.15 K	1044.63

COC(=O)OC [dimethyl carbonate] + Cc1ccc(C)c(C)c1
[1], x1 = 1
Conditions	mass density [kg/m3]
298.15 K	1062.97
313.15 K	1044.63
